pEC50: −log10 of the molar value. Activity calls are given as the source filed them. The calls are words filed in the database; no cut-off is given here.
Assays:
[1] = system: 1A9; assay: Cytotoxicity against human 1A9 cells by sulforhodamine B assay; assay type: functional; details: read-out: ED50 (the source's name)
[2] = system: MCF7; assay: Cytotoxicity against human MCF7 cells by sulforhodamine B assay; assay type: functional; details: read-out: ED50 (the source's name)
[3] = system: A549; assay: Cytotoxicity against human A549 cells by sulforhodamine B assay; assay type: functional; details: read-out: ED50 (the source's name)
[4] = system: KB; assay: Cytotoxicity against human KB cells by sulforhodamine B assay; assay type: functional; details: read-out: ED50 (the source's name)
[5] = system: DU-145; assay: Cytotoxicity against human DU145 cells by sulforhodamine B assay; assay type: functional; details: read-out: ED50 (the source's name)
[6] = system: PC-3; assay: Cytotoxicity against human PC3 cells by sulforhodamine B assay; assay type: functional; details: read-out: ED50 (the source's name)
[7] = system: LNCaP; assay: Cytotoxicity against human LNCAP cells by sulforhodamine B assay; assay type: functional; details: read-out: ED50 (the source's name)
[8] = (§1) Cytotoxicity against multi drug-resistant human KBVIN cells by sulforhodamine B assay; assay type: functional; details: read-out: ED50 (the source's name)
[9] = system: HUVEC; assay: Antiangiogenesis activity against HUVEC cells; assay type: functional; details: Homo sapiens, read-out: ED50 (the source's name)
[10] = Cytotoxicity against multi drug-resistant human KBVIN cells at 20 ug/mL by sulforhodamine B assay; assay type: functional
[11] = Cytotoxicity against human MRC5 cells by sulforhodamine B assay; assay type: cell-based; details: read-out: ED50 (the source's name)
[12] = system: KBVIN; assay: as §1; assay type: functional

| Compound | pEC50 [1] | pEC50 [2] | pEC50 [3] | pEC50 [4] | pEC50 [5] | pEC50 [6] | pEC50 [7] | pEC50 [8] | pEC50 [9] | inhibition at 20 µg/mL [10] [%] | CC50 [11] [µM] | Activity [12] |
| --- | --- | --- | --- | --- | --- | --- | --- | --- | --- | --- | --- | --- |
| COc1cc2c(c(OC)c1O)-c1ccc(OC)c(=O)cc1[C@@H](NC(C)=O)CC2 [2-DESMETHYLCOLCHICIN] | 6.74 | 6.44 | 6.02 | 6.84 | 6.21 | 6.32 | 6.49 | 4.54 |  |  |  |  |
| CC[C@@]1(O)C(=O)OCc2c1cc1n(c2=O)Cc2cc3ccccc3nc2-1 [CAMPTOTHECIN] | 8.49 | 8.49 | 8.16 | 7.68 | 7.96 | 7.78 | 8.70 | 7.82 |  |  |  |  |
| COc1cc([C@@H]2c3cc4c(cc3[C@@H](NCc3ccc(C(=O)O[C@H]5C[C@H]6OC[C@@]6(OC(C)=O)[C@H]6[C@H](OC(=O)c7ccccc7)[C@]7(O)C[C@H](OC(=O)[C@H](O)[C@@H](NC(=O)c8ccccc8)c8ccccc8)C(C)=C([C@@H](OC(C)=O)C(=O)[C@]56C)C7(C)C)cc3)[C@H]3COC(=O)[C@H]23)OCO4)cc(OC)c1O | 7.12 | 7.17 | 6.91 | 7.06 | 6.78 | 6.72 | 6.89 | 5.28 |  |  |  |  |
| COc1cc([C@@H]2c3cc4c(cc3[C@@H](N)[C@H]3COC(=O)[C@H]23)OCO4)cc(OC)c1O | 6.13 | 6.16 | 5.97 | 6.95 | 5.51 | 5.91 | 6.17 | 5.69 |  |  |  |  |
| COc1ccc2c(c1)[C@@H](/N=C/c1ccc(C(=O)O[C@@H](C(=O)O[C@H]3C[C@@]4(O)[C@@H](OC(=O)c5ccccc5)[C@@H]5[C@]6(OC(C)=O)CO[C@@H]6C[C@H](O)[C@@]5(C)C(=O)[C@H](OC(C)=O)C(=C3C)C4(C)C)[C@@H](NC(=O)c3ccccc3)c3ccccc3)cc1)CCc1cc(OC)c(OC)c(OC)c1-2 | 8.64 |  | 8.42 | 8.27 |  |  |  | 6.51 | 7.37 |  |  |  |
| COc1cc2c(c(OC)c1O)-c1ccc(SC)c(=O)cc1[C@@H](NC(C)=O)CC2 | 7.36 | 7.22 | 7.00 | 7.32 | 6.95 | 6.95 | 7.22 | 5.13 |  |  |  |  |
| COc1cc2c(c(OC)c1OC(=O)CCC(=O)O[C@@H](C(=O)O[C@H]1C[C@@]3(O)[C@@H](OC(=O)c4ccccc4)[C@@H]4[C@]5(OC(C)=O)CO[C@@H]5C[C@H](O)[C@@]4(C)C(=O)[C@H](OC(C)=O)C(=C1C)C3(C)C)[C@@H](NC(=O)c1ccccc1)c1ccccc1)-c1ccc(SC)c(=O)cc1[C@@H](NC(C)=O)CC2 | 7.99 | 7.61 | 7.63 | 7.77 | 7.53 | 7.14 | 7.71 |  | 8.03 | < 50 |  |  |
| COc1cc([C@@H]2c3cc4c(cc3[C@@H](/N=C/c3ccc(C(=O)O[C@H]5C[C@H]6OC[C@@]6(OC(C)=O)[C@H]6[C@H](OC(=O)c7ccccc7)[C@]7(O)C[C@H](OC(=O)[C@H](O)[C@@H](NC(=O)c8ccccc8)c8ccccc8)C(C)=C([C@@H](OC(C)=O)C(=O)[C@]56C)C7(C)C)cc3)[C@H]3COC(=O)[C@H]23)OCO4)cc(OC)c1O | 7.22 | 7.31 | 6.95 | 7.27 | 6.86 | 6.84 | 7.05 | 5.21 | 6.64 |  |  |  |
| COc1cc2c(c(OC)c1OC(=O)CCC(=O)O[C@@H](C(=O)O[C@H]1C[C@@]3(O)[C@@H](OC(=O)c4ccccc4)[C@@H]4[C@]5(OC(C)=O)CO[C@@H]5C[C@H](O)[C@@]4(C)C(=O)[C@H](OC(C)=O)C(=C1C)C3(C)C)[C@@H](NC(=O)c1ccccc1)c1ccccc1)-c1ccc(OC)c(=O)cc1[C@@H](NC(C)=O)CC2 | 7.97 | 7.58 | 7.56 | 7.72 | 7.50 | 7.29 | 7.89 |  | 7.86 | < 50 |  |  |
| COc1cc([C@@H]2c3cc4c(cc3[C@@H](Nc3ccc(C(=O)NCCCC(=O)O[C@@H](C(=O)O[C@H]5C[C@@]6(O)[C@@H](OC(=O)c7ccccc7)[C@@H]7[C@]8(OC(C)=O)CO[C@@H]8C[C@H](O)[C@@]7(C)C(=O)[C@H](OC(C)=O)C(=C5C)C6(C)C)[C@@H](NC(=O)c5ccccc5)c5ccccc5)cc3)[C@H]3COC(=O)[C@H]23)OCO4)cc(OC)c1O | 8.09 | 7.66 | 7.63 | 7.86 | 7.49 | 7.37 | 7.99 | 5.21 |  |  | 6.17 |  |
| CC[C@@]1(O)C(=O)OCn2c1cc1c(c2=O)Cc2c-1nc1ccccc1c2/C=N/CCC(=O)O[C@@H](C(=O)O[C@H]1C[C@@]2(O)[C@@H](OC(=O)c3ccccc3)[C@@H]3[C@]4(OC(C)=O)CO[C@@H]4C[C@H](O)[C@@]3(C)C(=O)[C@H](OC(C)=O)C(=C1C)C2(C)C)[C@@H](NC(=O)c1ccccc1)c1ccccc1 | 8.80 | 7.57 | 8.59 | 8.89 | 8.43 | 7.83 | 8.52 | 7.20 | 9.14 |  | 0.178 |  |
| COc1ccc2c(c1)[C@@H](/N=C/c1ccc(C(=O)O[C@H]3C[C@H]4OC[C@@]4(OC(C)=O)[C@H]4[C@H](OC(=O)c5ccccc5)[C@]5(O)C[C@H](OC(=O)[C@H](O)[C@@H](NC(=O)c6ccccc6)c6ccccc6)C(C)=C([C@@H](OC(C)=O)C(=O)[C@]34C)C5(C)C)cc1)CCc1cc(OC)c(OC)c(OC)c1-2 | 8.64 |  | 8.42 | 8.64 |  |  |  | 6.51 | 6.53 |  |  |  |
| COc1cc([C@@H]2c3cc4c(cc3[C@@H](O[C@H]3O[C@H]5CO[C@H](C)O[C@@H]5[C@@H](O)[C@@H]3O)[C@H]3COC(=O)[C@H]23)OCO4)cc(OC)c1O | 6.55 | 4.93 | 5.79 | 5.86 | 5.80 | 5.02 | 6.28 | 4.84 |  |  | > 0.03 |  |
| CC[C@@]1(O)C(=O)OCn2c1cc1c(c2=O)Cc2c-1nc1ccccc1c2C=O | 8.37 | 8.37 | 7.89 | 7.09 | 8.11 | 7.74 | 8.37 | 7.60 |  |  |  |  |
| COc1ccc2c(c1)[C@@H](NC(=O)CCC(=O)O[C@@H](C(=O)O[C@H]1C[C@@]3(O)[C@@H](OC(=O)c4ccccc4)[C@@H]4[C@]5(OC(C)=O)CO[C@@H]5C[C@H](O)[C@@]4(C)C(=O)[C@H](OC(C)=O)C(=C1C)C3(C)C)[C@@H](NC(=O)c1ccccc1)c1ccccc1)CCc1cc(OC)c(OC)c(OC)c1-2 | 7.85 | 7.53 | 7.55 | 7.67 | 7.46 | 7.15 | 7.63 |  | 7.80 | < 50 |  |  |
| COc1cc([C@@H]2c3cc4c(cc3[C@@H](Nc3ccc(C(=O)NCCCC(=O)O[C@H]5C[C@H]6OC[C@@]6(OC(C)=O)[C@H]6[C@H](OC(=O)c7ccccc7)[C@]7(O)C[C@H](OC(=O)[C@H](O)[C@@H](NC(=O)c8ccccc8)c8ccccc8)C(C)=C([C@@H](OC(C)=O)C(=O)[C@]56C)C7(C)C)cc3)[C@H]3COC(=O)[C@H]23)OCO4)cc(OC)c1O | 6.98 | 6.90 | 5.88 | 6.46 |  |  |  |  |  |  |  | inactive |
| COc1cc([C@@H]2c3cc4c(cc3[C@@H](Nc3ccc(C(=O)NCCC(=O)O[C@H]5C[C@H]6OC[C@@]6(OC(C)=O)[C@H]6[C@H](OC(=O)c7ccccc7)[C@]7(O)C[C@H](OC(=O)[C@H](O)[C@@H](NC(=O)c8ccccc8)c8ccccc8)C(C)=C([C@@H](OC(C)=O)C(=O)[C@]56C)C7(C)C)cc3)[C@H]3COC(=O)[C@H]23)OCO4)cc(OC)c1O | 7.68 | 7.36 | 7.34 | 7.50 | 7.08 | 7.06 | 7.66 |  |  | < 50 | 3.28 |  |
| CC[C@@]1(O)C(=O)OCn2c1cc1c(c2=O)Cc2c-1nc1ccccc1c2CNCCC(=O)O[C@@H](C(=O)O[C@H]1C[C@@]2(O)[C@@H](OC(=O)c3ccccc3)[C@@H]3[C@]4(OC(C)=O)CO[C@@H]4C[C@H](O)[C@@]3(C)C(=O)[C@H](OC(C)=O)C(=C1C)C2(C)C)[C@@H](NC(=O)c1ccccc1)c1ccccc1 | 8.82 | 8.57 | 8.59 | 8.72 | 8.64 | 8.51 | 8.92 | 5.69 | 8.68 |  | 6.13 |  |
| CC[C@@]1(O)C(=O)OCn2c1cc1c(c2=O)Cc2c-1nc1ccccc1c2/C=N/CCCC(=O)O[C@@H](C(=O)O[C@H]1C[C@@]2(O)[C@@H](OC(=O)c3ccccc3)[C@@H]3[C@]4(OC(C)=O)CO[C@@H]4C[C@H](O)[C@@]3(C)C(=O)[C@H](OC(C)=O)C(=C1C)C2(C)C)[C@@H](NC(=O)c1ccccc1)c1ccccc1 | 9.00 | 7.47 | 8.72 | 8.82 | 8.72 | 7.71 | 9.47 | 7.25 | 9.01 |  | 0.244 |  |
| CC(=O)O[C@H]1C(=O)[C@@]2(C)[C@H]([C@H](OC(=O)c3ccccc3)[C@]3(O)C[C@H](OC(=O)[C@H](O)[C@@H](NC(=O)c4ccccc4)c4ccccc4)C(C)=C1C3(C)C)[C@]1(OC(C)=O)CO[C@@H]1C[C@@H]2O [PACLITAXEL] | 9.00 | 8.96 | 8.64 | 8.74 | 8.89 | 7.26 | 8.59 | 6.51 |  |  |  |  |

Source: ChEMBL document CHEMBL1139194, “Antitumor agents. 256. Conjugation of paclitaxel with other antitumor agents: evaluation of novel conjugates as cytotoxic agents” (Bioorg Med Chem Lett, 2007)
